Results published in patent US6358885B1, “Substituted phenylheterocyclic herbicides” (Mississippi State University, priority 1992, dated 2002).

What was measured:
[1] = test system: chickweed; experiment: Test C preemergence/postemergence greenhouse plant response rating 0 to 100; format: in vivo, Stellaria media; conditions: POSTEMERGENCE
Procedure, shortened: (§1)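 Compounds in non-phytotoxic solvent went onto sandy loam before emergence (seeded one day earlier) or onto plants at the one-to-four leaf stage. Duck salad was treated via flood water (~2.5 cm, maintained) over silt loam.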

[2] = test system: wild oat; experiment: Test B preemergence/postemergence greenhouse plant response rating 0 to 10; format: in vivo, Avena fatua; conditions: 0 to 10 scale
Procedure, shortened: (§2)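 Postemergence treatment of plants two to eighteen cm tall ran alongside preemergence treatment of planted seed, each using compound in a non-phytotoxic solvent.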

[3] = test system: sorghum; experiment: as above; format: in vivo, Sorghum bicolor; conditions: 0 to 10 scale
Procedure, shortened: as §2

[4] = test system: downy brome; experiment: Test C preemergence/postemergence greenhouse plant response rating 0 to 100; format: in vivo, Bromus tectorum; conditions: POSTEMERGENCE
Procedure, shortened: as §1

[5] = test system: wheat; experiment: Test B preemergence/postemergence greenhouse plant response rating 0 to 10; format: in vivo, Triticum aestivum; conditions: 0 to 10 scale
Procedure, shortened: as §2

[6] = test system: wild buckwheat; experiment: Test C preemergence/postemergence greenhouse plant response rating 0 to 100; format: in vivo, Polygonum convolvulus; conditions: POSTEMERGENCE
Procedure, shortened: as §1

[7] = test system: morningglory; experiment: Test B preemergence/postemergence greenhouse plant response rating 0 to 10; format: in vivo, Ipomoea hederacea; conditions: 0 to 10 scale
Procedure, shortened: as §2

[8] = test system: crabgrass; experiment: as above; format: in vivo, Digitaria spp.; conditions: 0 to 10 scale
Procedure, shortened: as §2

[9] = test system: barley; experiment: Test C preemergence/postemergence greenhouse plant response rating 0 to 100; format: in vivo, Hordeum vulgare; conditions: POSTEMERGENCE
Procedure, shortened: as §1

[10] = test system: rape; experiment: Test B preemergence/postemergence greenhouse plant response rating 0 to 10; format: in vivo, Brassica napus; conditions: 0 to 10 scale
Procedure, shortened: as §2

[11] = test system: morningglory; experiment: Test C preemergence/postemergence greenhouse plant response rating 0 to 100; format: in vivo, Ipomoea hederacea; conditions: POSTEMERGENCE
Procedure, shortened: as §1

[12] = test system: purple nutsedge; experiment: Test B preemergence/postemergence greenhouse plant response rating 0 to 10; format: in vivo, Cyperus rotundus; conditions: Rate 50 g/ha, 0 to 10 scale
Procedure, shortened: as §2

[13] = test system: soybean; experiment: Test C preemergence/postemergence greenhouse plant response rating 0 to 100; format: in vivo, Glycine max; conditions: POSTEMERGENCE
Procedure, shortened: as §1

[14] = test system: umbrella sedge; experiment: Test C flood test plant response rating 0 to 100; format: in vivo, Cyperus difformis
Procedure, shortened: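 Compounds in non-phytotoxic solvent applied preemergence to sandy loam one day after planting, postemergence at the 1–4 leaf stage, or to ~2.5 cm floodwater over silt loam.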

[15] = test system: corn; experiment: Test B preemergence/postemergence greenhouse plant response rating 0 to 10; format: in vivo, Zea mays; conditions: 0 to 10 scale
Procedure, shortened: as §2

[16] = test system: soybean; experiment: as above; format: in vivo, Glycine max; conditions: 0 to 10 scale
Procedure, shortened: as §2

[17] = test system: chickweed; experiment: as above; format: in vivo, Stellaria media; conditions: POSTEMERGENCE, 0 to 10 scale
Procedure, shortened: as §2

[18] = test system: bedstraw; experiment: Test C preemergence/postemergence greenhouse plant response rating 0 to 100; format: in vivo, Galium aparine; conditions: POSTEMERGENCE
Procedure, shortened: as §1

With `C#CCN1C(=O)COc2cc(F)c(-c3nn4c(c3Cl)CCCC4)cc21` [Compound 34] the “Plant response rating, Chickweed” value ([1]; 62 g/ha, 0 to 100 scale) was 100, the “Plant response rating (0 to 100), Chickweed” value ([1]; Rate 1 g/ha) was 75 and the “Plant response rating (0 to 100), Chickweed” value ([1]; Rate 4 g/ha) was 75. The “Plant response rating (0 to 100), Chickweed” value ([1]; Rate 16 g/ha) was 100, the “Plant response rating, Wild oat” value ([2]; POSTEMERGENCE, Rate 10 g/ha) was 5 and the “Plant response rating, Wild oat” value ([2]; POSTEMERGENCE, Rate 50 g/ha) was 5. The “Plant response rating, Wild oat” value ([2]; PREEMERGENCE, Rate 50 g/ha) was 7, the “Plant response rating, Sorghum” value ([3]; POSTEMERGENCE, Rate 10 g/ha) was 4 and the “Plant response rating, Sorghum” value ([3]; POSTEMERGENCE, Rate 50 g/ha) was 6. For the same compound, the “Plant response rating, Sorghum” value ([3]; PREEMERGENCE, Rate 50 g/ha) was 2, the “Plant response rating Downy Brome” value ([4]; 62 g/ha, 0 to 100 scale) was 50 and the “Plant response rating (0 to 100), Downy Brome” value ([4]; Rate 1 g/ha) was 20. For the same compound, the “Plant response rating (0 to 100), Downy Brome” value ([4]; Rate 4 g/ha) was 30, the “Plant response rating (0 to 100), Downy Brome” value ([4]; Rate 16 g/ha) was 40 and the “Plant response rating, Wheat” value ([5]; POSTEMERGENCE, Rate 10 g/ha) was 5. For the same compound, the “Plant response rating, Wheat” value ([5]; POSTEMERGENCE, Rate 50 g/ha) was 5, the “Plant response rating, Wheat” value ([5]; PREEMERGENCE, Rate 50 g/ha) was 3 and the “Plant response rating, Wild buckwheat” value ([6]; 62 g/ha, 0 to 100 scale) was 100. For the same compound, the “Plant response rating (0 to 100), Wild buckwheat” value ([6]; Rate 4 g/ha) was 50, the “Plant response rating (0 to 100), Wild buckwheat” value ([6]; Rate 16 g/ha) was 100 and the “Plant response rating, Morningglory” value ([7]; POSTEMERGENCE, Rate 10 g/ha) was 9. For the same compound, the “Plant response rating, Morningglory” value ([7]; POSTEMERGENCE, Rate 50 g/ha) was 1, the “Plant response rating, Morningglory” value ([7]; PREEMERGENCE, Rate 50 g/ha) was 2 and the “Plant response rating, Crabgrass” value ([8]; POSTEMERGENCE, Rate 10 g/ha) was 3. The “Plant response rating, Crabgrass” value ([8]; POSTEMERGENCE, Rate 50 g/ha) was 4, the “Plant response rating, Crabgrass” value ([8]; PREEMERGENCE, Rate 10 g/ha) was 3 and the “Plant response rating, Crabgrass” value ([8]; PREEMERGENCE, Rate 50 g/ha) was 9. For the same compound, the “Plant response rating Barley Igri” value ([9]; 62 g/ha, 0 to 100 scale) was 40, the “Plant response rating (0 to 100), Barley Igri” value ([9]; Rate 1 g/ha) was 20 and the “Plant response rating (0 to 100), Barley Igri” value ([9]; Rate 4 g/ha) was 30. For the same compound, the “Plant response rating (0 to 100), Barley Igri” value ([9]; Rate 16 g/ha) was 40, the “Plant response rating, Rape” value ([10]; POSTEMERGENCE, Rate 10 g/ha) was 10 and the “Plant response rating, Rape” value ([10]; POSTEMERGENCE, Rate 50 g/ha) was 10. The “Plant response rating, Rape” value ([10]; PREEMERGENCE, Rate 50 g/ha) was 6, the “Plant response rating, Morningglory” value ([11]; 62 g/ha, 0 to 100 scale) was 100 and the “Plant response rating (0 to 100), Morningglory” value ([11]; Rate 1 g/ha) was 60. The “Plant response rating (0 to 100), Morningglory” value ([11]; Rate 4 g/ha) was 100, the “Plant response rating (0 to 100), Morningglory” value ([11]; Rate 16 g/ha) was 100 and the “Plant response rating, Nutsedge” value ([12]; POSTEMERGENCE) was 0. For the same compound, the “Plant response rating, Nutsedge” value ([12]; PREEMERGENCE) was 0, the “Plant response rating, Soybean” value ([13]; 62 g/ha, 0 to 100 scale) was 100 and the “Plant response rating (0 to 100), Soybean” value ([13]; Rate 1 g/ha) was 50. For the same compound, the “Plant response rating (0 to 100), Soybean” value ([13]; Rate 4 g/ha) was 70, the “Plant response rating (0 to 100), Soybean” value ([13]; Rate 16 g/ha) was 100 and the “Plant response rating (0 to 100), Umbrella sedge” value ([14]; POSTEMERGENCE section, flood test, Rate 1 g/ha) was 0. For the same compound, the “Plant response rating (0 to 100), Umbrella sedge” value ([14]; POSTEMERGENCE section, flood test, Rate 4 g/ha) was 0, the “Plant response rating (0 to 100), Umbrella sedge” value ([14]; Rate 16 g/ha, under POSTEMERGENCE head (flood test species)) was 60 and the “Plant response rating Umbrella sedge” value ([14]; flood test species listed under POSTEMERGENCE, 62 g/ha, 0 to 100 scale) was 80. For the same compound, the “Plant response rating, Corn” value ([15]; POSTEMERGENCE, Rate 10 g/ha) was 4, the “Plant response rating, Corn” value ([15]; POSTEMERGENCE, Rate 50 g/ha) was 4 and the “Plant response rating, Corn” value ([15]; PREEMERGENCE, Rate 50 g/ha) was 0. The “Plant response rating, Soybean” value ([16]; POSTEMERGENCE, Rate 10 g/ha) was 8, the “Plant response rating, Soybean” value ([16]; POSTEMERGENCE, Rate 50 g/ha) was 10 and the “Plant response rating, Soybean” value ([16]; PREEMERGENCE, Rate 50 g/ha) was 6. The “Plant response rating, Chickweed” value ([17]; Rate 10 g/ha) was 10, the “Plant response rating, Chickweed” value ([17]; Rate 50 g/ha) was 10 and the “Plant response rating, Bedstraw” value ([18]; 62 g/ha, 0 to 100 scale) was 100. For the same compound, the “Plant response rating (0 to 100), Bedstraw” value ([18]; Rate 1 g/ha) was 30, the “Plant response rating (0 to 100), Bedstraw” value ([18]; Rate 4 g/ha) was 95 and the “Plant response rating (0 to 100), Bedstraw” value ([18]; Rate 16 g/ha) was 100.
